# Measured values as given in patent publication US20240239861A1, “GLUCAGON-RECEPTOR SELECTIVE POLYPEPTIDES AND METHODS OF USE THEREOF” (i2O Therapeutics, Inc., priority 2016, published 2024).
# pEC50: −log10 of the molar value. Where a SMILES comes first, the peptide text is derived from it. [ ]: non-standard residue; d: D form. Aib = CC(C)(N)C(=O)O
# Assays:
# human GLP-1R = human GLP-1R (Homo sapiens, UniProt P43220); assay: Peptide-receptor mediated cAMP accumulation (LANCE Ultra cAMP) in CHO-K1 cells transfected with human GLP-1R; type: cell-based; details: hGLP1 pEC50 (cAMP mean (n = 3): 11 point curve starting at 1 nM, Table 3)
# human GLP-1R, sequence (P43220 24-463): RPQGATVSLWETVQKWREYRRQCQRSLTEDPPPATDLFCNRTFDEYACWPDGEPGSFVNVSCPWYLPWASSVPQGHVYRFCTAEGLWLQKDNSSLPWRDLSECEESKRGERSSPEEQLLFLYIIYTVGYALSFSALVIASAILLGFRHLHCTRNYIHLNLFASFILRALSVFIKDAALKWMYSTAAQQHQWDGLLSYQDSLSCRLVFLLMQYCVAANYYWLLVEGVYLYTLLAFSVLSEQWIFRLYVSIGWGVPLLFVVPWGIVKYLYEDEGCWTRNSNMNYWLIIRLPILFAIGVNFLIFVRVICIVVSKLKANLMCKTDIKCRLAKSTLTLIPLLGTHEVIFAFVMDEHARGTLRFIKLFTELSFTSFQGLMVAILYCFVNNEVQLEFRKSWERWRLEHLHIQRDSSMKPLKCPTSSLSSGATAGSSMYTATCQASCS
# human GCGR = human GCGR (Homo sapiens, UniProt P47871); assay: Peptide-receptor mediated cAMP accumulation (LANCE Ultra cAMP) in CHO-K1 cells transfected with human GCGR; type: cell-based; details: Table 3
# human GCGR, sequence (P47871 26-477): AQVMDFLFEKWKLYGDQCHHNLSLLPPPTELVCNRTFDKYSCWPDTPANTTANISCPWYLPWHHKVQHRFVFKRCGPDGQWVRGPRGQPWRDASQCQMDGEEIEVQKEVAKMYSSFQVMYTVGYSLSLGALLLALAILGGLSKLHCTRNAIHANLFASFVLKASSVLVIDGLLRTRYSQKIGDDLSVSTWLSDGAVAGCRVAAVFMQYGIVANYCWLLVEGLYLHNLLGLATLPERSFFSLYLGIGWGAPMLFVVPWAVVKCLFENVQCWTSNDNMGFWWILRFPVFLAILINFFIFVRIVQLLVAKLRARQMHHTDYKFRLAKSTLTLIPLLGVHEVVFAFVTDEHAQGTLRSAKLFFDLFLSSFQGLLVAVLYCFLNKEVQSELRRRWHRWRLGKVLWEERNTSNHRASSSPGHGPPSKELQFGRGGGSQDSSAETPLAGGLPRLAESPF
structure (smiles),measurement,setting,value
CC(C)C[C@H](NC(=O)[C@H](Cc1ccc(O)cc1)NC(=O)[C@H](CCCCN)NC(=O)[C@H](CO)NC(=O)[C@H](Cc1ccc(O)cc1)NC(=O)[C@H](CC(=O)O)NC(=O)[C@H](CO)NC(=O)[C@@H](NC(=O)[C@H](Cc1ccccc1)NC(=O)[C@@H](NC(=O)CNC(=O)[C@H](Cc1c[nH]cn1)NC(=O)[C@H](CO)NC(=O)[C@@H](N)Cc1ccc(O)cc1)[C@@H](C)O)[C@@H](C)O)C(=O)N[C@@H](CC(=O)O)C(=O)NC(C)(C)C(=O)N[C@@H](CCCCN)C(=O)N[C@H](C(=O)N[C@@H](C)C(=O)N[C@@H](CCC(N)=O)C(=O)N[C@@H](CCC(=O)O)C(=O)N[C@@H](Cc1ccccc1)C(=O)N[C@H](C(=O)NC(C)(C)C(=O)N[C@@H](Cc1c[nH]c2ccccc12)C(=O)N[C@@H](CC(C)C)C(=O)N[C@@H](CCC(=O)O)C(=O)N[C@@H](CC(=O)O)C(=O)N[C@@H](CCC(=O)O)C(=O)N1CCC[C@H]1C(=O)N[C@@H](CO)C(=O)N[C@@H](CO)C(=O)NCC(=O)N[C@@H](C)C(=O)N1CCC[C@H]1C(=O)N1CCC[C@H]1C(=O)N1CCC[C@H]1C(=O)N[C@@H](CO)C(=O)O)C(C)C)[C@@H](C)O [Compound A77] (H-YSHGTFTSDYSKYLD[Aib]KTAQEFV[Aib]WLEDEPSSGAPPPS-OH; N-terminus assumed),pEC50,human GLP-1R,< 9.00
same,pEC50,human GCGR,11.50
CC(C)C[C@H](NC(=O)[C@H](CCCCN)NC(=O)C(C)(C)NC(=O)[C@H](CC(=O)O)NC(=O)[C@H](CC(C)C)NC(=O)[C@H](Cc1ccc(O)cc1)NC(=O)[C@H](CCCCN)NC(=O)[C@H](CO)NC(=O)[C@H](Cc1ccc(O)cc1)NC(=O)[C@H](CC(=O)O)NC(=O)[C@H](CO)NC(=O)[C@@H](NC(=O)[C@H](Cc1ccccc1)NC(=O)[C@@H](NC(=O)CNC(=O)[C@H](Cc1c[nH]cn1)NC(=O)[C@H](CO)NC(=O)[C@@H](N)Cc1ccc(O)cc1)[C@@H](C)O)[C@@H](C)O)C(=O)N[C@@H](C)C(=O)N[C@@H](CCC(N)=O)C(=O)N[C@@H](CCC(=O)O)C(=O)N[C@@H](Cc1ccccc1)C(=O)N[C@H](C(=O)NC(C)(C)C(=O)N[C@@H](Cc1c[nH]c2ccccc12)C(=O)N[C@@H](CC(C)C)C(=O)N[C@@H](CCC(=O)O)C(=O)N[C@@H](CC(=O)O)C(=O)N[C@@H](CCC(=O)O)C(=O)N1CCC[C@H]1C(=O)N[C@@H](CO)C(=O)N[C@@H](CO)C(=O)NCC(=O)N[C@@H](C)C(=O)N1CCC[C@H]1C(=O)N1CCC[C@H]1C(=O)N1CCC[C@H]1C(=O)N[C@@H](CO)C(=O)O)C(C)C [Compound A78] (H-YSHGTFTSDYSKYLD[Aib]KLAQEFV[Aib]WLEDEPSSGAPPPS-OH; N-terminus assumed),pEC50,human GLP-1R,< 9.00
same,pEC50,human GCGR,10.80
CC(C)C[C@H](NC(=O)[C@H](Cc1ccc(O)cc1)NC(=O)[C@H](CCCCN)NC(=O)[C@H](CO)NC(=O)[C@H](Cc1ccc(O)cc1)NC(=O)[C@H](CC(=O)O)NC(=O)[C@H](CO)NC(=O)[C@@H](NC(=O)[C@H](Cc1ccccc1)NC(=O)[C@@H](NC(=O)CNC(=O)[C@H](Cc1c[nH]cn1)NC(=O)[C@H](CO)NC(=O)[C@@H](N)Cc1ccc(O)cc1)[C@@H](C)O)[C@@H](C)O)C(=O)N[C@@H](CC(=O)O)C(=O)NC(C)(C)C(=O)N[C@@H](CCCCN)C(=O)N[C@@H](CCC(=O)O)C(=O)N[C@@H](C)C(=O)N[C@@H](CCC(N)=O)C(=O)N[C@@H](CCC(=O)O)C(=O)N[C@@H](Cc1ccccc1)C(=O)N[C@H](C(=O)NC(C)(C)C(=O)N[C@@H](Cc1c[nH]c2ccccc12)C(=O)N[C@@H](CC(C)C)C(=O)N[C@@H](CCC(=O)O)C(=O)N[C@@H](CC(=O)O)C(=O)N[C@@H](CCC(=O)O)C(=O)N1CCC[C@H]1C(=O)N[C@@H](CO)C(=O)N[C@@H](CO)C(=O)NCC(=O)N[C@@H](C)C(=O)N1CCC[C@H]1C(=O)N1CCC[C@H]1C(=O)N1CCC[C@H]1C(=O)N[C@@H](CO)C(=O)O)C(C)C [Compound A79] (H-YSHGTFTSDYSKYLD[Aib]KEAQEFV[Aib]WLEDEPSSGAPPPS-OH; N-terminus assumed),pEC50,human GLP-1R,< 9.00
same,pEC50,human GCGR,10.20
CC(C)C[C@H](NC(=O)[C@H](Cc1ccc(O)cc1)NC(=O)[C@H](CCCCN)NC(=O)[C@H](CO)NC(=O)[C@H](Cc1ccc(O)cc1)NC(=O)[C@H](CC(=O)O)NC(=O)[C@H](CO)NC(=O)[C@@H](NC(=O)[C@H](Cc1ccccc1)NC(=O)[C@@H](NC(=O)CNC(=O)[C@H](CCC(N)=O)NC(=O)[C@H](CO)NC(=O)[C@@H](N)Cc1ccc(O)cc1)[C@@H](C)O)[C@@H](C)O)C(=O)N[C@@H](CC(=O)O)C(=O)N[C@@H](CO)C(=O)N[C@@H](C)C(=O)N[C@@H](CCCNC(=N)N)C(=O)N[C@@H](C)C(=O)N[C@@H](CCC(N)=O)C(=O)N[C@@H](CCC(=O)O)C(=O)N[C@@H](Cc1ccccc1)C(=O)N[C@H](C(=O)N[C@@H](CCCCN)C(=O)N[C@@H](Cc1c[nH]c2ccccc12)C(=O)N[C@@H](CC(C)C)C(=O)N[C@@H](CCC(=O)O)C(=O)N[C@@H](CC(=O)O)C(=O)N[C@@H](CCC(=O)O)C(=O)N1CCC[C@H]1C(=O)N[C@@H](CCCCN)C(=O)N[C@@H](CO)C(=O)N[C@@H](CCCCN)C(=O)N[C@@H](CO)C(=O)N1CCC[C@H]1C(=O)N1CCC[C@H]1C(=O)N1CCC[C@H]1C(=O)N[C@@H](CO)C(=O)O)C(C)C [Compound A81] (H-YSQGTFTSDYSKYLDSARAQEFVKWLEDEPKSKSPPPS-OH; N-terminus assumed),pEC50,human GLP-1R,< 9.00
same,pEC50,human GCGR,11.00
CC(C)C[C@H](NC(=O)[C@H](Cc1ccc(O)cc1)NC(=O)[C@H](CCCCN)NC(=O)[C@H](CO)NC(=O)[C@H](Cc1ccc(O)cc1)NC(=O)[C@H](CC(=O)O)NC(=O)[C@H](CO)NC(=O)[C@@H](NC(=O)[C@H](Cc1ccccc1)NC(=O)[C@@H](NC(=O)CNC(=O)[C@H](CCC(N)=O)NC(=O)[C@H](CO)NC(=O)[C@@H](N)Cc1ccc(O)cc1)[C@@H](C)O)[C@@H](C)O)C(=O)N[C@@H](CC(=O)O)C(=O)N[C@@H](CO)C(=O)N[C@@H](C)C(=O)N[C@@H](CCCNC(=N)N)C(=O)N[C@@H](C)C(=O)N[C@@H](CCC(N)=O)C(=O)N[C@@H](CCC(=O)O)C(=O)N[C@@H](Cc1ccccc1)C(=O)N[C@H](C(=O)N[C@@H](CCCCN)C(=O)N[C@@H](Cc1c[nH]c2ccccc12)C(=O)N[C@@H](CC(C)C)C(=O)N[C@@H](CCC(=O)O)C(=O)N[C@@H](CC(=O)O)C(=O)N[C@@H](CCC(=O)O)C(=O)N1CCC[C@H]1C(=O)N[C@@H](CCCCN)C(=O)N[C@@H](CO)C(=O)N[C@@H](CCCCN)C(=O)N[C@@H](C)C(=O)N1CCC[C@H]1C(=O)N1CCC[C@H]1C(=O)N1CCC[C@H]1C(=O)N[C@@H](CO)C(=O)O)C(C)C [Compound A82] (H-YSQGTFTSDYSKYLDSARAQEFVKWLEDEPKSKAPPPS-OH; N-terminus assumed),pEC50,human GLP-1R,< 9.00
same,pEC50,human GCGR,11.00
CC(C)C[C@H](NC(=O)[C@H](Cc1ccc(O)cc1)NC(=O)[C@H](CCCCN)NC(=O)[C@H](CO)NC(=O)[C@H](Cc1ccc(O)cc1)NC(=O)[C@H](CC(=O)O)NC(=O)[C@H](CO)NC(=O)[C@@H](NC(=O)[C@H](Cc1ccccc1)NC(=O)[C@@H](NC(=O)CNC(=O)[C@H](Cc1c[nH]cn1)NC(=O)[C@H](CO)NC(=O)[C@@H](N)Cc1ccc(O)cc1)[C@@H](C)O)[C@@H](C)O)C(=O)N[C@@H](CC(=O)O)C(=O)N[C@@H](CO)C(=O)N[C@@H](C)C(=O)N[C@@H](CCCNC(=N)N)C(=O)N[C@@H](C)C(=O)N[C@@H](CCC(N)=O)C(=O)N[C@@H](CCC(=O)O)C(=O)N[C@@H](Cc1ccccc1)C(=O)N[C@H](C(=O)N[C@@H](CCCCN)C(=O)N[C@@H](Cc1c[nH]c2ccccc12)C(=O)N[C@@H](CC(C)C)C(=O)N[C@@H](CCC(=O)O)C(=O)N[C@@H](CC(=O)O)C(=O)N[C@@H](CCC(=O)O)C(=O)N1CCC[C@H]1C(=O)N[C@@H](CCCCN)C(=O)N[C@@H](CO)C(=O)N[C@@H](CCCCN)C(=O)N[C@@H](CO)C(=O)N1CCC[C@H]1C(=O)N1CCC[C@H]1C(=O)N1CCC[C@H]1C(=O)N[C@@H](CO)C(=O)O)[C@@H](C)O [Compound A83] (H-YSHGTFTSDYSKYLDSARAQEFTKWLEDEPKSKSPPPS-OH; N-terminus assumed),pEC50,human GLP-1R,< 9.00
same,pEC50,human GCGR,10.20
CC(C)C[C@H](NC(=O)[C@H](Cc1ccc(O)cc1)NC(=O)[C@H](CCCCN)NC(=O)[C@H](CO)NC(=O)[C@H](Cc1ccc(O)cc1)NC(=O)[C@H](CC(=O)O)NC(=O)[C@H](CO)NC(=O)[C@@H](NC(=O)[C@H](Cc1ccccc1)NC(=O)[C@@H](NC(=O)CNC(=O)[C@H](Cc1c[nH]cn1)NC(=O)[C@H](CO)NC(=O)[C@@H](N)Cc1ccc(O)cc1)[C@@H](C)O)[C@@H](C)O)C(=O)N[C@@H](CC(=O)O)C(=O)N[C@@H](CO)C(=O)N[C@@H](C)C(=O)N[C@@H](CCCNC(=N)N)C(=O)N[C@@H](C)C(=O)N[C@@H](CCC(N)=O)C(=O)N[C@@H](CCC(=O)O)C(=O)N[C@@H](Cc1ccccc1)C(=O)N[C@H](C(=O)N[C@@H](CCCCN)C(=O)N[C@@H](Cc1c[nH]cn1)C(=O)N[C@@H](CC(C)C)C(=O)N[C@@H](CCC(=O)O)C(=O)N[C@@H](CC(=O)O)C(=O)N[C@@H](CCC(=O)O)C(=O)N1CCC[C@H]1C(=O)N[C@@H](CCCCN)C(=O)N[C@@H](CO)C(=O)N[C@@H](CCCCN)C(=O)N[C@@H](CO)C(=O)N1CCC[C@H]1C(=O)N1CCC[C@H]1C(=O)N1CCC[C@H]1C(=O)N[C@@H](CO)C(=O)O)C(C)C [Compound A84] (H-YSHGTFTSDYSKYLDSARAQEFVKHLEDEPKSKSPPPS-OH; N-terminus assumed),pEC50,human GLP-1R,< 9.00
same,pEC50,human GCGR,9.40
